From patent US20150031102A1, “METHODS AND COMPOSITIONS FOR ENHANCED PRODUCTION OF BUTANOL BY CLOSTRIDIA” (Butrolix LLC, priority 2012, published 2015)
Marks after values point to notes of the source that are not given here.

Columns and labels:
C. acetobutylicum [1] = assay: Calculated optimum peptide treatment level (polynomial curve fitted to butanol concentration vs treatment level per culture transfer); type: cell-based, Clostridium acetobutylicum
From the text: FIG. 20. Calculation of optimum peptide treatment level for transfer 13 of the first experiment that tested peptide BP110517 (SEQ ID NO:143) (see Table 1 for data). The four butanol concentration data points were graphed against the treatment levels and a polynomial curve was fitted to the graph.
The data from the sequential batch culture experiments treated with peptides BP110517 and BP1106213 were used to calculate optimum peptide treatment levels for enhanced butanol production by C. acetobutylicum. The calculation was made for each culture transfer using the butanol concentration results from control and experimental wells. The four data points for each culture transfer were graphed against the treatment levels, and a polynomial curve was fitted to the graph.
Then, the first derivative of the polynomial fitted to the data for each culture transfer was solved for “x”, which was the maximum point of the fitted polynomial curve (Table 46). The resulting peptide concentration value was assumed to be close to an optimum peptide treatment level that would result in enhanced butanol production.

C. acetobutylicum [2] = assay: Time course study of replicate 250 mL batch cultures (growth, butanol, residual glucose, yield, productivity); type: cell-based, Clostridium acetobutylicum; conditions: for Increased butanol concentration versus untreated: 50 nM BP1106213; for Butanol concentration / Residual glucose: 50 nM peptide, average ± SD of triplicate, second time course study; for Residual glucose: initial glucose 60 g/L
Procedure: Subsequently, time-course studies were conducted using the optimum peptide treatment level that was determined by the sequential batch transfer experiments. Untreated and peptide-treated cultures were grown in triplicate 250 mL batches that were inoculated with […] of the ninth sequential transfer from 24-well culture plates. The 1/1000 ratio of inoculum to culture volume was the same as that used throughout the prior sequential batch transfer experiments, and the replicate time course batch cultures corresponded to the 10th sequential batch transfer. Samples were recovered from the triplicate control and experimental batches a regular time intervals up to 96 hours of culture. Optical density of the replicates was measured and culture supernatants were recovered following centrifugation and analyzed later for butanol and residual glucose concentrations. The analyses were used to calculate yield and productivity of the cultures.
Clostridium acetobutylicum strain ATCC 824 was used in all experiments and the growth medium used for sequential batch transfer, time course, and continuous culture experiments contained yeast extract, casamino acids, L-cysteine, L-asparagine, phosphate buffer, trace minerals, and 6% glucose. What are believed to be quorum-sensing peptides that were used in the experiments were chemically synthesized peptides SEQ ID NO: 143 (amino acid sequence: SYPGWSW) and SEQ ID NO: 144 (amino acid sequence: ILILISG). Routine growth of the bacteria as well as the sequential batch and time course experiments were conducted in a Form a Scientific Model 1029 anaerobic gas chamber at 32° C. Continuous cultures were performed at 32° C. using duplicate New Brunswick Scientific BioFlo 3000 apparati with a dilution rate of 0.01 volume per hour, 75 rpm agitation, and nitrogen gas sparging. Optical density of culture samples was measured at 600 nm in a Beckman DU 600 series spectrophotometer and glucose was analyzed using a YSI Model 2700 Select Biochemistry Analyzer with internal glucose calibration. Butanol concentrations were determined by measuring experimental and standard samples using a Varian Saturn 3 Gas Chromatograph/Mass Spectrometer and calculating butanol concentrations using standard curves.
The study was started by inoculating triplicate 250 mL batches of untreated and peptide-treated medium with 250 μL of the corresponding ninth sequential transfer from 24-well culture plates. Therefore, the replicate time course batch cultures corresponded to the 10th sequential batch transfer. Samples were recovered from the triplicate control and experimental batches at regular time intervals up to 96 hours of culture for measurement of optical density at 600 nm and analysis of butanol and residual glucose concentrations.
Like the previous time course experiment, this study was started by inoculating triplicate 250 mL batches of untreated and peptide-treated medium with 250 μL of the corresponding ninth sequential transfer from 24-well culture plates. As before, samples were recovered from the triplicate control and experimental batches at regular time intervals up to 96 hours of culture for measurement of optical density and analysis of butanol and residual glucose concentrations.

ILILISG (Derived from Clostridium acetobutylicum SEQ ID NO: 110) [peptide SEQ ID NO: 144]
Calculated Optimum Peptide Level, Average (C. acetobutylicum [1]; average over culture transfers, Expt. 1): 46.2 ± 10.7 nM | Calculated Optimum Peptide Level, Average (C. acetobutylicum [1]; average over culture transfers, Expt. 2): 40.5 ± 3.8 nM | Average optimum peptide treatment level (C. acetobutylicum [1]; average over culture transfers, both experiments for BP110517, single non-inhibitory experiment for BP1106213, fairly large standard deviations): mid to high 40 | Calculated Optimum Peptide Level (C. acetobutylicum [1]; transfer 4, Expt. 1): 46.0 nM | Calculated Optimum Peptide Level (C. acetobutylicum [1]; transfer 4, Expt. 2): Inhib. | Calculated Optimum Peptide Level (C. acetobutylicum [1]; transfer 7, Expt. 1): 32.4 nM | Calculated Optimum Peptide Level (C. acetobutylicum [1]; transfer 7, Expt. 2): Inhib. | Calculated Optimum Peptide Level (C. acetobutylicum [1]; transfer 10, Expt. 1): 49.0 nM | Calculated Optimum Peptide Level (C. acetobutylicum [1]; transfer 10, Expt. 2): Inhib. | Calculated Optimum Peptide Level (C. acetobutylicum [1]; transfer 13, Expt. 1): Inhib.^d | Calculated Optimum Peptide Level (C. acetobutylicum [1]; transfer 13, Expt. 2): 43.2 nM | Calculated Optimum Peptide Level (C. acetobutylicum [1]; transfer 16, Expt. 1): 50.7 nM | Calculated Optimum Peptide Level (C. acetobutylicum [1]; transfer 16, Expt. 2): Inhib. | Calculated Optimum Peptide Level (C. acetobutylicum [1]; transfer 19, Expt. 1): 36.8 nM | Calculated Optimum Peptide Level (C. acetobutylicum [1]; transfer 19, Expt. 2): Inhib. | Calculated Optimum Peptide Level (C. acetobutylicum [1]; transfer 22, Expt. 1): 62.4 nM | Calculated Optimum Peptide Level (C. acetobutylicum [1]; transfer 22, Expt. 2): 37.8 nM | Increased butanol concentration versus untreated (C. acetobutylicum [2]; 72 hours of culture growth): ≤ 15% | Increased butanol concentration versus untreated (C. acetobutylicum [2]; 96 hours of culture growth): ≤ 21% | Butanol concentration (C. acetobutylicum [2]; 0 hours): 0.23 ± 0.00 g/L | Residual glucose (C. acetobutylicum [2]; 0 hours): 59.1 ± 0.9 g/L | Butanol concentration (C. acetobutylicum [2]; 6 hours): 0.24 ± 0.00 g/L | Residual glucose (C. acetobutylicum [2]; 6 hours): 59.8 ± 0.9 g/L | Butanol concentration (C. acetobutylicum [2]; 12 hours): 0.26 ± 0.01^c g/L | Residual glucose (C. acetobutylicum [2]; 12 hours): 60.7 ± 0.8 g/L | Butanol concentration (C. acetobutylicum [2]; 15 hours): 0.26 ± 0.01^c g/L | Residual glucose (C. acetobutylicum [2]; 15 hours): 58.4 ± 0.5 g/L | Butanol concentration (C. acetobutylicum [2]; 18 hours): 0.28 ± 0.01^c g/L | Residual glucose (C. acetobutylicum [2]; 18 hours): 57.4 ± 0.7 g/L | Butanol concentration (C. acetobutylicum [2]; 21 hours): 0.32 ± 0.01 g/L | Residual glucose (C. acetobutylicum [2]; 21 hours): 60.6 ± 0.8 g/L | Butanol concentration (C. acetobutylicum [2]; 24 hours): 0.52 ± 0.01^c g/L | Residual glucose (C. acetobutylicum [2]; 24 hours): 49.4 ± 0.7 g/L | Butanol concentration (C. acetobutylicum [2]; 27 hours): 0.64 ± 0.01 g/L | Residual glucose (C. acetobutylicum [2]; 27 hours): 50.4 ± 1.9 g/L | Butanol concentration (C. acetobutylicum [2]; 30 hours): 0.70 ± 0.04 g/L | Residual glucose (C. acetobutylicum [2]; 30 hours): 49.7 ± 1.9 g/L | Butanol concentration (C. acetobutylicum [2]; 33 hours): 0.82 ± 0.03 g/L | Residual glucose (C. acetobutylicum [2]; 33 hours): 47.6 ± 1.2 g/L | Butanol concentration (C. acetobutylicum [2]; 36 hours): 0.82 ± 0.03 g/L | Residual glucose (C. acetobutylicum [2]; 36 hours): 47.4 ± 1.3 g/L | Butanol concentration (C. acetobutylicum [2]; 48 hours): 1.00 ± 0.03 g/L | Residual glucose (C. acetobutylicum [2]; 48 hours): 44.9 ± 0.5 g/L | Butanol concentration (C. acetobutylicum [2]; 72 hours): 1.17 ± 0.12^c g/L | Residual glucose (C. acetobutylicum [2]; 72 hours): 44.1 ± 3.1 g/L | Butanol concentration (C. acetobutylicum [2]; 96 hours): 0.98 ± 0.07 g/L | Residual glucose (C. acetobutylicum [2]; 96 hours): 46.4 ± 0.9^c g/L
